# Laboratory results taken from patent publication US8865911B2, “Compounds and their use as BACE inhibitors” (Astrazeneca AB, priority 2010, dated 2014).
# Target: T1, human β-Secretase (Homo sapiens (Human), UniProt P56817)
# Test: Diluted TR-FRET assay
# Assay type: biochemical
# Settings: values marked ^a; 50 times less enzyme, 6.5 h reaction time at r.t. in the dark; read-out: IC50 in TR-FRET assay (IC50 from the diluted FRET assay)
# Procedure: (§1) The β-secretase enzyme used in the TR-FRET is prepared as follows: The cDNA for the soluble part of the human β-Secretase (AA 1-AA 460) was cloned using the ASP2-Fc10-1-IRES-GFP-neoK mammalian expression vector. The gene was fused to the Fc domain of IgG1 (affinity tag) and stably cloned into HEK 293 cells.
# The robotic systems Biomek FX and Velocity 11 were used for all liquid handling and the enzyme and substrate solutions were kept on ice until they were placed in the robotic system. Enzyme (9 μl) was added to the plate then 1 μl of compound in dimethylsulphoxide was added, mixed and pre-incubated for 10 minutes. […] The reaction was stopped with the addition of Stop solution (7 μl, NaAcetate, pH 9). […] The dimethylsulphoxide control, instead of test compound, defined the 100% activity level and 0% activity was defined by wells lacking enzyme (replaced with reaction buffer).
# T1 sequence (P56817 22-460): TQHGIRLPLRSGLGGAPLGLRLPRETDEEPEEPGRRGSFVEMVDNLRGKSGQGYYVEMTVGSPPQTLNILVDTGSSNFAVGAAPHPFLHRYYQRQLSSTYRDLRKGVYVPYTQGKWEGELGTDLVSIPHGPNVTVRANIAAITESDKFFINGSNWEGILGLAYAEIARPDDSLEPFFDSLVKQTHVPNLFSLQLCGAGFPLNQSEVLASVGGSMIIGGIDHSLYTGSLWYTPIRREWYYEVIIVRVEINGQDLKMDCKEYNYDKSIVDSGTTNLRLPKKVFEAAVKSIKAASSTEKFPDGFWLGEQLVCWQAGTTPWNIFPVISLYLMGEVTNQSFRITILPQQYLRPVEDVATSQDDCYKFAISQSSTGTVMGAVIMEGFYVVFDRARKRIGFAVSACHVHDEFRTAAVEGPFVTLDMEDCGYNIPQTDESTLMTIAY
row,SMILES,IC50 [nM]
1,"COc1cc(C#N)cc(-c2ccc3c(c2)[C@@]2(N=C(C)C(N)=N2)[C@]2(CC[C@H](OC(F)F)CC2)C3)c1 (racemic) [Example 106, 3-[(1r,4r)-4″-Amino-4-(difluoromethoxy)-5″-methyl-3′H-dispiro[cyclohexane-1,2′-indene-1′,2″-imidazol]-6′-yl]-5-methoxybenzonitrile]",1
2,"CO[C@H]1CC[C@]2(CC1)Cc1ccc(-c3cc(Cl)cnc3C)cc1C21N=C(C)C(N)=N1 (stereo partly drawn) [Example 62, (1r,4r)-6′-(5-Chloro-2-methylpyridin-3-yl)-4-methoxy-5″-methyl-3′H-dispiro[cyclohexane-1,2′-indene-1′,2″-imidazol]-4″-amine]",19
3,"CCC1=NC2(N=C1N)c1cc(-c3cncc(C#N)c3)ccc1C[C@]21CC[C@@H](OC)CC1 (stereo partly drawn) [Example 69, 5-[(1r,4r)-4″-Amino-5″-ethyl-4-methoxy-3′H-dispiro[cyclohexane-1,2′-indene-1′,2″-imidazol]-6′-yl]pyridine-3-carbonitrile]",21
4,"CO[C@H]1CC[C@]2(CC1)Cc1ccc(-c3cc(C)cc(C#N)c3)cc1C21N=C(C)C(N)=N1 (stereo partly drawn) [Example 74, 3-[(1r,4r)-4″-Amino-4-methoxy-5″-methyl-3′H-dispiro[cyclohexane-1,2′-indene-1′,2″-imidazol]-6′-yl]-5-methylbenzonitrile]",2.6
5,"CO[C@H]1CC[C@]2(CC1)Cc1ccc(-c3cc(C#N)cc(C(F)F)c3)cc1[C@@]21N=C(C)C(N)=N1 [Example 86, 3-[(1r,1′R,4R)-4″-Amino-4-methoxy-5″-methyl-3′H-dispiro[cyclohexane-1,2′-indene-1′,2″-imidazol]-6′-yl]-5-(difluoromethyl)benzonitrile]",1.5
6,"CO[C@H]1CC[C@]2(CC1)Cc1ccc(-c3ccccc3)cc1[C@@]21N=C(C)C(N)=N1 [Example 90, (1r,1′R,4R)-4-Methoxy-5″-methyl-6′-phenyl-3′H-dispiro[cyclohexane-1,2′-indene-1′,2″-imidazol]-4″-amine]",13
7,"CCc1cc(C#N)cc(-c2ccc3c(c2)C2(N=C(C)C(N)=N2)[C@]2(CC[C@H](OC)CC2)C3)c1 (stereo partly drawn) [Example 95, 3-[(1r,4r)-4″-Amino-4-methoxy-5″-methyl-3′H-dispiro[cyclohexane-1,2′-indene-1′,2″-imidazol]-6′-yl]-5-ethylbenzonitrile]",5.3
8,"COc1ccc(F)c(-c2ccc3c(c2)[C@@]2(N=C(C)C(N)=N2)[C@]2(CC[C@H](OC)CC2)C3)c1 [Example 98, (1r,1′R,4R)-6′-(2-Fluoro-5-methoxyphenyl)-4-methoxy-5″-methyl-3′H-dispiro[cyclohexane-1,2′-indene-1′,2″-imidazol]-4″-amine]",1.5
9,"CO[C@H]1CC[C@]2(CC1)Cc1ccc(-c3cc(F)ccc3F)cc1[C@@]21N=C(C)C(N)=N1 [Example 99, (1r,1′R,4R)-6′-(2,5-Difluorophenyl)-4-methoxy-5′-methyl-3′H-dispiro[cyclohexane-1,2′-indene-1′,2″-imidazol]-4″-amine]",3.9
10,"CC1=NC2(N=C1N)c1cc(-c3cc(Cl)cc(C#N)c3)ccc1C[C@]21CC[C@@H](OC(F)F)CC1 (stereo partly drawn) [Example 108, 3-[(1r,4r)-4″-Amino-4-(difluoromethoxy)-5″-methyl-3′H-dispiro[cyclohexane-1,2′-indene-1′,2″-imidazol]-6′-yl]-5-chlorobenzonitrile]",1.3

# The next lines start with the values.
row,IC50 [nM],SMILES
1,2.3,"CC#Cc1ccnc(-c2ccc3c(c2)C2(N=C(C)C(N)=N2)[C@]2(CC[C@H](OC)CC2)C3)c1 (stereo partly drawn) [Example 20b, (1r,4r)-4-Methoxy-5″-methyl-6′-[4-(prop-1-yn-1-yl)pyridin-2-yl]-3′H-dispiro[cyclohexane-1,2′-indene-1′,2″-imidazol]-4″-amine]"
2,5.5,"CO[C@H]1CC[C@]2(CC1)Cc1ccc(-c3cncc(F)c3)cc1C21N=C(C)C(N)=N1 (stereo partly drawn) [Example 20f, (1r,4r)-6′-(5-Fluoropyridin-3-yl)-4-methoxy-5″-methyl-3′H-dispiro[cyclohexane-1,2′-indene-1′,2″-imidazol]-4″-amine]"
3,18,"CO[C@H]1CC[C@]2(CC1)Cc1ccc(NC(=O)c3ncc(Cl)cc3C)cc1C21N=C(C)C(N)=N1 (stereo partly drawn) [Example 20w, N-[(1r,4r)-4″-Amino-4-methoxy-5″-methyl-3′H-dispiro[cyclohexane-1,2′-indene-1′,2″-imidazol]-6′-yl]-5-chloro-3-methylpyridine-2-carboxamide]"
4,4.9,"CC#Cc1cc(-c2ccc3c(c2)C2(N=C(C)C(N)=N2)[C@]2(CC[C@H](OC)CC2)C3)ccn1 (stereo partly drawn) [Example 20y, (1r,4r)-4-Methoxy-5″-methyl-6′-[2-(prop-1-yn-1-yl)pyridin-4-yl]-3′H-dispiro[cyclohexane-1,2′-indene-1′,2″-imidazol]-4″-amine]"
5,1.4,CC#Cc1cncc(-c2ccc3c(c2)C2(N=C(C)C(N)=N2)C2(CCC(OC)CC2)O3)c1 (stereo not drawn) [Example 30c]
6,5.2,"COC1CCC2(CC1)Oc1ccc(-c3cncc(Cl)c3)cc1C21N=C(C)C(N)=N1 (stereo not drawn) [Example 30d, 5′-(5-Chloropyridin-3-yl)-4-methoxy-5′-methyldispiro[cyclohexane-1,2′-[1]benzofuran-3′,2″-imidazol]-4″-amine]"

# Tested on: sAPPβ release, SH-SY5Y cells
# Test: sAPPβ release assay
# Assay type: cell-based
# Settings: Homo sapiens, SH-SY5Y, 17 h, compounds incubated 17 h, MSD detection
# Procedure: Thaw cells and seed at a conc. of around 10000 cells/well in DMEM/F-12 with Glutamax, 10% FCS and 1% non-essential amino acids to a 384-well tissue culture treated plate, 100 μL cell susp/well. […] The cell medium was removed, followed by addition of 30 μL compound diluted in DMEM/F-12 with Glutamax, 10% FCS, 1% non-essential amino acids and 1% PeSt to a final conc. of 1% DMSO. The compounds were incubated with the cells for 17 h (overnight) at 37° C., 5% CO2. Meso Scale Discovery (MSD) plates were used for the detection of sAPPβ release. MSD sAPPβ plates were blocked in 1% BSA in Tris wash buffer (40 μL/well) for 1 h on shake at r.t. and washed 1 time in Tris wash buffer (40 μL/well). 20 μL of medium was transferred to the pre-blocked and washed MSD sAPPβ microplates, and the cell plates were further used in an ATP assay to measure cytotoxicity. The MSD plates were incubated with shaking at r.t. for 2 h and the media discarded. 10 μL detection antibody was added (1 nM) per well followed by incubation with shaking at r.t. for 2 h and then discarded. 40 μL Read Buffer was added per well and the plates were read in a SECTOR Imager.
row,SMILES,IC50 [nM]
1,"CCC1=NC2(N=C1N)c1cc(-c3cncc(Cl)c3)ccc1C[C@]21CC[C@@H](OC)CC1 (single isomer, unassigned) [Example 66 Isomer 1, (1r,4r)-6′-(5-chloropyridin-3-yl)-5″-ethyl-4-methoxy-3′H-dispiro[cyclohexane-1,2′-indene-1′,2″-imidazol]-4″-amine]",1.6
2,"CC#Cc1cncc(-c2ccc3c(c2)C2(N=C(N)C(CC)=N2)[C@]2(CC[C@H](OC)CC2)C3)c1 (single isomer, unassigned) [Example 68 Isomer 1, (1r,4r)-5″-ethyl-4-methoxy-6′-[5-(prop-1-yn-1-yl)pyridin-3-yl]-3′H-dispiro[cyclohexane-1,2′-indene-1′,2″-imidazol]-4″-amine]",0.38

# Same assay, conditions: compounds incubated 17 h, MSD detection
row,IC50 [nM],SMILES
1,17,"CC1=NC2(CC(C3CCOC(C)(C)C3)Oc3ccc(-c4cccc(Cl)c4)cc32)N=C1N (racemic) [Example 50 Isomeric mixture 2, 6-(3-Chlorophenyl)-2-(2,2-dimethyltetrahydro-2H-pyran-4-yl)-5′-methylspiro[chroman-4,2′-imidazol]-4′-amine]"
2,419,"CC1=NC2(CC3(CCCOC3)Oc3ccc(-c4cccc(Cl)c4)cc32)N=C1N (single isomer, unassigned) [Example 46a Isomer 1, 6′-(3-Chlorophenyl)-5-methyl-5″,6″-dihydro-4″H-dispiro[imidazole-2,4′-chromene-2′,3″-pyran]-4-amine]"
3,426,"CC1=NC2(CC3(CCCOC3)Oc3ccc(-c4ccc(F)c(Cl)c4)cc32)N=C1N (single isomer, unassigned) [Example 46b Isomer 1, 6′-(3-Chloro-4-fluorophenyl)-5-methyl-5″,6″-dihydro-4′H-dispiro[imidazole-2,4′-chromene-2′,3″-pyran]-4-amine]"

# Target: T1, human β-Secretase
# Test: TR-FRET assay
# Assay type: biochemical
# Settings: sBACE-Fc, substrate (Europium)CEVNLDAEFK(Qsy7) 100 nM, pH4.5, 15 minutes at r.t.
# Procedure: as §1
# The robotic systems Biomek FX and Velocity 11 were used for all liquid handling and the enzyme and substrate solutions were kept on ice until they were placed in the robotic system. Enzyme (9 μl) was added to the plate then 1 μl of compound in dimethylsulphoxide was added, mixed and pre-incubated for 10 minutes. Substrate (10 μl) was then added, mixed and the reaction proceeded for 15 minutes at r.t. The reaction was stopped with the addition of Stop solution (7 μl, NaAcetate, pH 9). […] The dimethylsulphoxide control, instead of test compound, defined the 100% activity level and 0% activity was defined by wells lacking enzyme (replaced with reaction buffer).
row,IC50 [nM],SMILES
1,25,"CCO[C@H]1CC[C@]2(CC1)Cc1ccc(-c3cncc(Cl)c3)cc1C21N=C(C)C(N)=N1 (stereo partly drawn) [Example 133, (1r,4r)-6′-(5-chloropyridin-3-yl)-4-ethoxy-5″-methyl-3′H-dispiro[cyclohexane-1,2′-indene-1′,2″-imidazol]-4″-amine]"
2,28,"CCO[C@H]1CC[C@]2(CC1)Cc1ccc(-c3cc(C#N)cc(C(F)F)c3)cc1C21N=C(C)C(N)=N1 (stereo partly drawn) [Example 134, 3-[(1r,4r)-4″-Amino-4-ethoxy-5″-methyl-3′H-dispiro[cyclohexane-1,2′-indene-1′,2″-imidazol]-6′-yl]-5-(difluoromethyl)benzonitrile]"
3,22,"CC#Cc1cncc(-c2ccc3c(c2)C2(N=C(C)C(N)=N2)[C@]2(CC[C@H](OCC)CC2)C3)c1 (stereo partly drawn) [Example 135, (1r,4r)-4-Ethoxy-5″-methyl-6′-[5-(prop-1-yn-1-yl)pyridin-3-yl]-3′H-dispiro[cyclohexane-1,2′-indene-1′,2″-imidazol]-4″-amine]"
